Results as given in PMC6326523, “A high-throughput screen to identify novel small molecule inhibitors of the Werner Syndrome Helicase-Nuclease (WRN)” (PLoS ONE, 2019).

Tests used:
full-length WRN helicase = target: T1, full-length WRN helicase (Homo sapiens, UniProt Q14191); experiment: Radiometric helicase inhibitor reversibility assay (100-fold dilution); assay type: biochemical; design: key to Reversibility: (-) = irreversible; (+) = minimally reversible; (++) = partially reversible; (+++) = reversible; conditions: for Reversibility: WRN 100 nM preincubated at 10-fold IC50, diluted 100-fold, unwinding 0-16 min; for Reversibility of inhibition (in words): full-length WRN
T1 construct: Full length recombinant WRN [18], BLM [19], and FANCJ [20] proteins were purified from insect cells; made in house; host or cells: insect cells
Protocol: WRN (full length, 100 nM concentration) was incubated with each small molecule inhibitor at a concentration 10-fold higher than the IC50 for that inhibitor, in a 10 μL reaction at room temperature. 1.5 μL of this reaction was added to 148.5 μL of reaction salts with 2 mM ATP, 0.5 nM FORKR reducing the full length WRN concentration to 1 nM and the drug concentration to 10-fold less than its IC50. Reactions were placed at 37°C and 20 μL of reaction were removed at specific intervals (0–16 min) and quenched with 20 μL of 2X STOP dye containing EDTA, glycerol, bromphenol blue and xylene cyanol. Samples were electrophoresed for 1.5 hr at 200 V on a 12% non-denaturing PAGE gel in 1X TBE Buffer.
Eighteen compounds were selected based on potency of inhibition in both the screening and radiometric assays, and exclusion of compounds with undesired chemical features. For each compound, we performed titrations over a wide range of concentrations with a fixed concentration of full-length WRN protein (1 nM), and quantitated unwinding as a percentage of full-length WRN unwinding of the FORKR DNA substrate (0.5 nM) in the absence of compound (Fig 6A and 6B, S3 Fig). […] In addition to determining an IC50 value for each compound, we also conducted helicase assays to determine the reversibility of inhibition by each compound tested. Details of the assay can be found in the Materials and Methods section, but briefly 100 nM WRN was incubated with each compound at a concentration 10-fold higher than its IC50 value. The reaction was diluted 100-fold with the addition of DNA substrate (0.5 nM final concentration) and ATP (2 mM final concentration) and unwinding was measured (Fig 7A–7D, S4 Fig). Inhibition was either classified as reversible, partially reversible, minimally reversible, or irreversible based on the ability of helicase activity to recover after dilution of the compound 100-fold. Table 2 summarizes the IC50 values and reversibility for each compound and includes IC50 values obtained from the screens for comparison.

U2-OS cells = experiment: U2-OS cell proliferation assay (WST-1); assay type: cell-based, human; conditions: 100 μM; for Effect on proliferation of U2-OS cells: Day 0 through Day 3
Protocol: WRN inhibitors were diluted in DMSO to a concentration 100-fold higher than their final concentrations. U2-OS cells in culture were counted, spun down and resuspended to 35,000 cells/mL in DMEM with 10% FBS and Pen/Strep antibiotic. For each cell condition, 15 μL of DMSO or inhibitor was added to 1.5 ml of U2-OS cells in DMEM or DMEM alone. One hundred μL of each cell condition was plated in triplicate on each of four 96-well plates representing days 0–3. Ten μL of WST-1 cell proliferation reagent (Roche) was added to the day 0 plate and readings were taken 2 hr later using a plate reader set to 450 nm. WST-1 cell proliferation reagent was added to plates on days 1–3 and readings were taken after 2 hr incubation. Percent cell proliferation was normalized to cells in the presence of DMSO with the background OD450 of DMEM with each drug subtracted out.
Fig 9 Effects of WRN helicase inhibitors on cancer cell proliferation. (A) Cell proliferation of HeLa 1.2.11 cells treated with 50 μM NCGC00029283-03, NCGC00063279-03, NCGC00357377-01 and NSC 617145 (positive control) or vehicle (DMSO) on Day 0 and Day 3 as measured using the WST-1 cell proliferation reagent. (B) Cell proliferation of U2-OS cells treated with increasing amounts of NCGC00029283-03 (0–100 μM) from Day 0 through Day 3. (C) Cell proliferation of U2-OS cells treated with increasing amounts of NCGC00063279-03 (0–100 μM) from Day 0 through Day 3. (D) Cell proliferation of U2-OS cells treated with 100 μM NCGC00357377-01 from Day 0 through Day 3.
HeLa cells are characterized by reduced expression of wild-type p53 as well as an inability to increase p53 levels after DNA damage due to human papillomavirus (HPV) elements. This raised the possibility that p53 status may play a role in the ability of small molecule WRN helicase inhibitors to affect cell proliferation. In addition, HeLa 1.2.11 cells are characterized by relatively long telomeres and use telomerase to maintain telomere length. Since WRN is implicated in the Alternative Lengthening of Telomeres (ALT) pathway, cells that are dependent on the ALT pathway may be more sensitive to WRN inhibitors as well. To address this possibility, we treated U2-OS osteosarcoma cells (which express wild-type p53 and utilize the ALT pathway for keeping very long telomeres) with all three compounds. In this case, we observed a 50% reduction in U2-OS cell proliferation two days after initial exposure to NCGC00029283-03 (100 μM).

T1 sequence (Q14191 whole entry): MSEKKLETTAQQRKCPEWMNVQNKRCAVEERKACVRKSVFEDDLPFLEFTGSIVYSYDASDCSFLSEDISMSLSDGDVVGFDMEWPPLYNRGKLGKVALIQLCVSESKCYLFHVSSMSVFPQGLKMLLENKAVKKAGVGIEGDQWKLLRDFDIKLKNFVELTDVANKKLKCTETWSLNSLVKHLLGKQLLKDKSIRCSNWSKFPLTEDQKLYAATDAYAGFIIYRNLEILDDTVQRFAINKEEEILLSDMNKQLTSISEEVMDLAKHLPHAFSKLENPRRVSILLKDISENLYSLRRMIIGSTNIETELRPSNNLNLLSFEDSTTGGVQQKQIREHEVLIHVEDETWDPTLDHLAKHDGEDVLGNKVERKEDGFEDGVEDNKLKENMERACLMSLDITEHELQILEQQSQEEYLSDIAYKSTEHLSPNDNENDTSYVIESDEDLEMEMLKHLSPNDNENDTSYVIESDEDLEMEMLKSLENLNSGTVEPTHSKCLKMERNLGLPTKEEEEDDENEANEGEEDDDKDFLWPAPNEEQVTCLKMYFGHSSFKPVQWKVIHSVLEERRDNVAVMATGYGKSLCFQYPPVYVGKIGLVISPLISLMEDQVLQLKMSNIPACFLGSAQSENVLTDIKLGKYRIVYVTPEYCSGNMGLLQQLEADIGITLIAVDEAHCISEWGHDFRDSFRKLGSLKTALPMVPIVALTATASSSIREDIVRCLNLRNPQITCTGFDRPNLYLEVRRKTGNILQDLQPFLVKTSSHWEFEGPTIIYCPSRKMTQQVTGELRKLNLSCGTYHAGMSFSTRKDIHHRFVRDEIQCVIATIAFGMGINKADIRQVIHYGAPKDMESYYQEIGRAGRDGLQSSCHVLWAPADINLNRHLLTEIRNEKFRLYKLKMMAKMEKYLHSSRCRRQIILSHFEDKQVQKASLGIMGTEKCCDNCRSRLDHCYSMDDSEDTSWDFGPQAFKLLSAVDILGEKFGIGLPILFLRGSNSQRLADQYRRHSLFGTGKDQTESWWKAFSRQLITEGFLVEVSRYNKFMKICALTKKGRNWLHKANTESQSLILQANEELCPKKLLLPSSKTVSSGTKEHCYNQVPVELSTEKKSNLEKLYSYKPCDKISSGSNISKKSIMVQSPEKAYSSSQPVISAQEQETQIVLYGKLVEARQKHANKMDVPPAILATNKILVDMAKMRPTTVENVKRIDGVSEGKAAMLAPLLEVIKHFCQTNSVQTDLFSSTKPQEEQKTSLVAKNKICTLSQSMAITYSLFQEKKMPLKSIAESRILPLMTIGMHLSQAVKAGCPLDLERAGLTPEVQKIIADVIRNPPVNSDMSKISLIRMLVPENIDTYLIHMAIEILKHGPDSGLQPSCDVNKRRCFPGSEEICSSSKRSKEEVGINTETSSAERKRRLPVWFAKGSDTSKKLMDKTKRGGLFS

SMILES	Reversibility (full-length WRN helicase)	Effect on proliferation of U2-OS cells (U2-OS cells; listed as NCGC00357377)	Effect on proliferation of U2-OS cells (U2-OS cells; listed as NCGC00357377-01)	Reversibility of inhibition (in words) (full-length WRN helicase)	Reduction in U2-OS cell proliferation (U2-OS cells; after three days exposure) [%]	Effect on proliferation of U2-OS cells (U2-OS cells)	Reduction in U2-OS cell proliferation (U2-OS cells; two days after initial exposure) [%]
Cc1ccc(-c2csc(NS(=O)(=O)c3cccc(F)c3)n2)o1 [MLS002251300-02]	++	did not reduce cell proliferation	did not have any effect	–	–	–	–
COc1ccc2nc(O)c(-c3noc(-c4ccccc4)n3)cc2c1 [NCGC00063279-02]	+++	–	–	at least partially reversible	40	–	–
COc1ccc2nc(O)c(-c3noc(-c4ccc(F)cc4)n3)cc2c1 [NCGC00029283-02]	++	–	–	at least partially reversible	–	also detectable after three days	50
